Data: publication PMC5218480 (PLoS ONE, 2017)

System: MV-4-11 cells
Experiment: Gene expression microarray analysis (Affymetrix PrimeView) and GSEA
Format: cell-based, human
Parameters: RFU PODN (11730768_x_at) / Fold change /veh PODN (11730768_x_at) / RFU LINC00158 (11744669_a_at) / Fold change /veh LINC00158 (11744669_a_at) / RFU DUSP10 (11751237_a_at) / Fold change /veh DUSP10 (11751237_a_at) / RFU ID3 (11757404_x_at) / Fold change /veh ID3 (11757404_x_at) / RFU PLEKHG5 (11737974_s_at) / Fold change /veh PLEKHG5 (11737974_s_at) / RFU LRRC4B (11730491_at) / Fold change /veh LRRC4B (11730491_at) / RFU GIMAP4 (11747438_a_at) / Fold change /veh GIMAP4 (11747438_a_at) / RFU KRT8 (11758183_x_at) / Fold change /veh KRT8 (11758183_x_at) / RFU CNN1 (11734310_a_at) / Fold change /veh CNN1 (11734310_a_at) / RFU VPS37D (11726825_at) / Fold change /veh VPS37D (11726825_at) / RFU C10orf10 (11716522_x_at) / Fold change /veh C10orf10 (11716522_x_at) / RFU KIR2DL2 /// KIR2DL4 /// KIR2DL5A /// KIR2DL5B /// KIR2DS1 /// KIR2DS2 /// KIR2DS3 /// KIR2DS4 /// KIR3DL3 /// KIR3DL3 /// KIR3DS1 (11738374_at) / Fold change /veh KIR2DL2 /// KIR2DL4 /// KIR2DL5A /// KIR2DL5B /// KIR2DS1 /// KIR2DS2 /// KIR2DS3 /// KIR2DS4 /// KIR3DL3 /// KIR3DL3 /// KIR3DS1 (11738374_at) / RFU C1QL1 (11718748_at) / Fold change /veh C1QL1 (11718748_at) / RFU TMPRSS4 (11747572_a_at) / Fold change /veh TMPRSS4 (11747572_a_at) / RFU HAMP (11756126_x_at) / Fold change /veh HAMP (11756126_x_at) / RFU RNFT2 (11725882_a_at) / Fold change /veh RNFT2 (11725882_a_at) / RFU NR4A2 (11747474_a_at) / Fold change /veh NR4A2 (11747474_a_at) / RFU ABCC12 (11746883_a_at) / Fold change /veh ABCC12 (11746883_a_at) / RFU TMEM136 (11760407_x_at) / Fold change /veh TMEM136 (11760407_x_at) / RFU CLDN22 /// WWC2 (11732394_at) / Fold change /veh CLDN22 /// WWC2 (11732394_at) / RFU HLA-DPB1 (11760878_x_at) / Fold change /veh HLA-DPB1 (11760878_x_at) / RFU SPINT1 (11716480_a_at) / Fold change /veh SPINT1 (11716480_a_at) / RFU GAP43 (11754022_s_at) / Fold change /veh GAP43 (11754022_s_at) / RFU A4GNT (11735810_at) / Fold change /veh A4GNT (11735810_at) / RFU PRB3 (11715151_x_at) / Fold change /veh PRB3 (11715151_x_at) / RFU TUBB4B (11761932_at) / Fold change /veh TUBB4B (11761932_at) / RFU CAPN14 (11732068_a_at) / Fold change /veh CAPN14 (11732068_a_at) / RFU TMCC2 (11721928_a_at) / Fold change /veh TMCC2 (11721928_a_at) / RFU IRGQ (11745062_a_at) / Fold change /veh IRGQ (11745062_a_at) / RFU FAM174B (11720279_a_at) / Fold change /veh FAM174B (11720279_a_at) / RFU TMPRSS4 (11748680_a_at) / Fold change /veh TMPRSS4 (11748680_a_at) / RFU FAM212B (11763350_a_at) / Fold change /veh FAM212B (11763350_a_at) / RFU PLEKHG5 (11743358_a_at) / Fold change /veh PLEKHG5 (11743358_a_at) / RFU ZSCAN30 (11745921_a_at) / Fold change /veh ZSCAN30 (11745921_a_at) / RFU CMKLR1 (11741424_a_at) / Fold change /veh CMKLR1 (11741424_a_at) / RFU LOC101060620 /// MAPK8IP1 (11723275_at) / Fold change /veh LOC101060620 /// MAPK8IP1 (11723275_at) / RFU SPTSSB (11747773_x_at) / Fold change /veh SPTSSB (11747773_x_at) / RFU PRSS12 (11739890_at) / Fold change /veh PRSS12 (11739890_at) / RFU BIN1 (11741810_x_at) / Fold change /veh BIN1 (11741810_x_at) / RFU WNT11 (11732464_a_at) / Fold change /veh WNT11 (11732464_a_at) / RFU C10orf10 (11716521_a_at) / Fold change /veh C10orf10 (11716521_a_at) / RFU C5orf56 (11738089_at) / Fold change /veh C5orf56 (11738089_at) / RFU CYB561 (11721691_x_at) / Fold change /veh CYB561 (11721691_x_at) / RFU ANKRD19P (11752326_a_at) / Fold change /veh ANKRD19P (11752326_a_at) / RFU OR2T12 /// OR2T33 /// OR2T8 (11738714_s_at) / Fold change /veh OR2T12 /// OR2T33 /// OR2T8 (11738714_s_at) / RFU VCAN (11748164_a_at) / Fold change /veh VCAN (11748164_a_at) / RFU JSRP1 (11732532_at) / Fold change /veh JSRP1 (11732532_at) / RFU KRTAP10-11 (11738290_x_at) / Fold change /veh KRTAP10-11 (11738290_x_at) / RFU MYO3A (11730013_a_at) / Fold change /veh MYO3A (11730013_a_at) / RFU EBF3 (11725865_a_at) / Fold change /veh EBF3 (11725865_a_at) / RFU CAMK2N1 (11719241_x_at) / Fold change /veh CAMK2N1 (11719241_x_at) / RFU C5orf56 (11738088_a_at) / Fold change /veh C5orf56 (11738088_a_at) / RFU OLFML3 (11715873_a_at) / Fold change /veh OLFML3 (11715873_a_at) / RFU LOC100653217 /// NTM (11731650_a_at) / Fold change /veh LOC100653217 /// NTM (11731650_a_at) / RFU MAPK11 (11762145_a_at) / Fold change /veh MAPK11 (11762145_a_at) / RFU FIZ1 (11724087_x_at) / Fold change /veh FIZ1 (11724087_x_at) / RFU OASL (11726364_x_at) / Fold change /veh OASL (11726364_x_at) / RFU SOX15 (11748057_x_at) / Fold change /veh SOX15 (11748057_x_at) / RFU CD79A (11719716_a_at) / Fold change /veh CD79A (11719716_a_at) / RFU HIST1H1D (11736915_at) / Fold change /veh HIST1H1D (11736915_at) / RFU CASKIN2 (11723855_a_at) / Fold change /veh CASKIN2 (11723855_a_at) / RFU LOC730098 (11760151_x_at) / Fold change /veh LOC730098 (11760151_x_at) / RFU OR4N2 (11742367_at) / Fold change /veh OR4N2 (11742367_at) / RFU PRRT2 (11749266_a_at) / Fold change /veh PRRT2 (11749266_a_at) / RFU SNX32 (11753110_a_at) / Fold change /veh SNX32 (11753110_a_at) / RFU CDHR5 (11726645_a_at) / Fold change /veh CDHR5 (11726645_a_at) / RFU RCAN1 (11760418_a_at) / Fold change /veh RCAN1 (11760418_a_at) / RFU FAM167A (11723789_a_at) / Fold change /veh FAM167A (11723789_a_at) / RFU FAM26E (11764081_at) / Fold change /veh FAM26E (11764081_at) / RFU ISYNA1 (11749810_s_at) / Fold change /veh ISYNA1 (11749810_s_at) / RFU ACY1 (11761880_at) / Fold change /veh ACY1 (11761880_at) / RFU 11764098_at / Fold change /veh 11764098_at / RFU SAMD14 (11745864_x_at) / Fold change /veh SAMD14 (11745864_x_at) / RFU NPB (11741838_a_at) / Fold change /veh NPB (11741838_a_at) / RFU TMPRSS6 (11731388_a_at) / Fold change /veh TMPRSS6 (11731388_a_at) / RFU KRTAP10-2 (11738614_at) / Fold change /veh KRTAP10-2 (11738614_at) / RFU ARHGAP8 /// PRR5-ARHGAP8 (11727945_x_at) / Fold change /veh ARHGAP8 /// PRR5-ARHGAP8 (11727945_x_at) / RFU KRTAP5-7 /// NADSYN1 (11734609_at) / Fold change /veh KRTAP5-7 /// NADSYN1 (11734609_at) / RFU RASL12 (11751679_a_at) / Fold change /veh RASL12 (11751679_a_at) / RFU CDKN2B (11736163_a_at) / Fold change /veh CDKN2B (11736163_a_at) / RFU PRF1 (11729649_at) / Fold change /veh PRF1 (11729649_at) / RFU, ZNF638 /// ZNF638-IT1 / Fold change vs veh, ZNF638 /// ZNF638-IT1 / RFU, PANK3 / Fold change vs veh, PANK3 / RFU, SH3YL1 / Fold change vs veh, SH3YL1 / RFU, ZEB2 / Fold change vs veh, ZEB2 / RFU, NRIP1 / Fold change vs veh, NRIP1 / RFU, PTTG1IP / Fold change vs veh, PTTG1IP / RFU, CAPN2 / Fold change vs veh, CAPN2 / RFU, MED14 / Fold change vs veh, MED14 / RFU, SNORA58 / Fold change vs veh, SNORA58 / RFU, C1orf63 / Fold change vs veh, C1orf63 / RFU, LRRFIP1 / Fold change vs veh, LRRFIP1 / RFU, NDUFAF7 / Fold change vs veh, NDUFAF7 / RFU, SLC12A2 / Fold change vs veh, SLC12A2 / RFU, IBTK / Fold change vs veh, IBTK / RFU, ESF1 / Fold change vs veh, ESF1 / Fold change vs veh, TMEM50B / RFU, TAOK1 / Fold change vs veh, TAOK1 / RFU, ACBD3 / Fold change vs veh, ACBD3 / RFU, TMA16 / Fold change vs veh, TMA16 / RFU, RWDD3 / Fold change vs veh, RWDD3 / RFU, BCAT1 / Fold change vs veh, BCAT1 / RFU, EDEM3 / Fold change vs veh, EDEM3 / RFU, TMEM33 / Fold change vs veh, TMEM33 / RFU, WDR75 / Fold change vs veh, WDR75 / RFU, AHCTF1 / Fold change vs veh, AHCTF1 / RFU, TFRC / Fold change vs veh, TFRC / RFU, ZDHHC17 / Fold change vs veh, ZDHHC17 / RFU, NOM1 / Fold change vs veh, NOM1 / RFU, ARL8B / Fold change vs veh, ARL8B / RFU, ZBTB11 / Fold change vs veh, ZBTB11 / RFU, TAMM41 / Fold change vs veh, TAMM41 / RFU, KIAA1704 /// LOC100996395 / Fold change vs veh, KIAA1704 /// LOC100996395 / RFU, ING1 / Fold change vs veh, ING1 / RFU, TRMT61B / Fold change vs veh, TRMT61B / RFU, FUBP3 / Fold change vs veh, FUBP3 / RFU, TP53 / Fold change vs veh, TP53 / RFU, TNKS2 / Fold change vs veh, TNKS2 / RFU, ZFP14 / Fold change vs veh, ZFP14 / RFU, ACTR2 / Fold change vs veh, ACTR2 / RFU, PPP3R1 / Fold change vs veh, PPP3R1 / RFU, PIK3R1 / Fold change vs veh, PIK3R1 / RFU, HNRNPA1 / Fold change vs veh, HNRNPA1 / RFU, RNF170 / Fold change vs veh, RNF170 / RFU, ZNF28 / Fold change vs veh, ZNF28 / RFU, RNGTT / Fold change vs veh, RNGTT / RFU, OGT / Fold change vs veh, OGT / RFU, BRD1 / Fold change vs veh, BRD1 / RFU, MARS / Fold change vs veh, MARS / RFU, ZNF655 / Fold change vs veh, ZNF655 / RFU, FAHD1 / Fold change vs veh, FAHD1 / RFU, BDP1 / Fold change vs veh, BDP1 / RFU, LRRCC1 / Fold change vs veh, LRRCC1 / RFU, ARID1A / Fold change vs veh, ARID1A / RFU, ZNF146 / Fold change vs veh, ZNF146 / RFU, ZNF330 / Fold change vs veh, ZNF330 / RFU, GPN3 / Fold change vs veh, GPN3 / RFU, C9orf123 / Fold change vs veh, C9orf123 / RFU, N4BP2L2 / Fold change vs veh, N4BP2L2 / RFU, ARFIP1 / Fold change vs veh, ARFIP1 / RFU, FAM179B / Fold change vs veh, FAM179B / RFU, BCL10 / Fold change vs veh, BCL10 / RFU, UHRF1BP1L / Fold change vs veh, UHRF1BP1L / RFU, BET1 / Fold change vs veh, BET1 / RFU, CNOT2 / Fold change vs veh, CNOT2 / RFU, ZNF268 / Fold change vs veh, ZNF268 / Fold change vs veh, ZNF507 / RFU, DGCR2 / Fold change vs veh, DGCR2 / RFU, WDSUB1 / Fold change vs veh, WDSUB1 / Fold change vs veh, HSP90B1 /// MIR3652 / RFU, ADSS / Fold change vs veh, ADSS / RFU, GK / Fold change vs veh, GK / RFU, ZNF148 / Fold change vs veh, ZNF148 / RFU, TAF9 / Fold change vs veh, TAF9 / RFU, SLC1A5 / Fold change vs veh, SLC1A5 / RFU, SLMO2 / Fold change vs veh, SLMO2 / RFU, ABCC4 / Fold change vs veh, ABCC4 / RFU, LOC101060439 /// RAP1B / Fold change vs veh, LOC101060439 /// RAP1B / RFU, RFX7 / Fold change vs veh, RFX7 / RFU, GTPBP10 / Fold change vs veh, GTPBP10 / RFU, CNEP1R1 / Fold change vs veh, CNEP1R1 / RFU, BIVM-ERCC5 /// ERCC5 / Fold change vs veh, BIVM-ERCC5 /// ERCC5 / RFU, ILF3 / Fold change vs veh, ILF3 / RFU 11762660_at / Fold change /veh 11762660_at / RFU VCAN (11757783_s_at) / Fold change /veh VCAN (11757783_s_at) / RFU DDX43 (11728927_at) / Fold change /veh DDX43 (11728927_at) / RFU KRT8 (11758188_x_at) / Fold change /veh KRT8 (11758188_x_at) / RFU NKD1 (11759106_at) / Fold change /veh NKD1 (11759106_at) / RFU SRD5A1 (11742802_a_at) / Fold change /veh SRD5A1 (11742802_a_at) / RFU TPSAB1 /// TPSB2 (11721975_s_at) / Fold change /veh TPSAB1 /// TPSB2 (11721975_s_at) / RFU GSTM3 (11746129_a_at) / Fold change /veh GSTM3 (11746129_a_at) / RFU IL23R (11737362_x_at) / Fold change /veh IL23R (11737362_x_at) / RFU TMEM51 (11727254_a_at) / Fold change /veh TMEM51 (11727254_a_at) / RFU PIWIL2 (11732686_x_at) / Fold change /veh PIWIL2 (11732686_x_at) / RFU ORM1 (11744905_x_at) / Fold change /veh ORM1 (11744905_x_at) / RFU CCDC152 (11743942_at) / Fold change /veh CCDC152 (11743942_at) / RFU ECM1 (11717891_a_at) / Fold change /veh ECM1 (11717891_a_at) / RFU IL23R (11748794_a_at) / Fold change /veh IL23R (11748794_a_at) / RFU TNFAIP8L3 (11732012_x_at) / Fold change /veh TNFAIP8L3 (11732012_x_at) / RFU MBOAT4 (11741988_at) / Fold change /veh MBOAT4 (11741988_at) / RFU 11764193_at / Fold change /veh 11764193_at / RFU TMEM53 (11763286_at) / Fold change /veh TMEM53 (11763286_at) / RFU MAGEB2 (11727129_at) / Fold change /veh MAGEB2 (11727129_at) / RFU TMEM200A (11744735_a_at) / Fold change /veh TMEM200A (11744735_a_at) / RFU CCDC152 (11751479_a_at) / Fold change /veh CCDC152 (11751479_a_at) / RFU FAM211A (11726209_a_at) / Fold change /veh FAM211A (11726209_a_at) / RFU RGS16 (11746705_a_at) / Fold change /veh RGS16 (11746705_a_at) / RFU VCAN (11755009_s_at) / Fold change /veh VCAN (11755009_s_at) / RFU RHOB (11743442_s_at) / Fold change /veh RHOB (11743442_s_at) / RFU RGS16 (11720943_a_at) / Fold change /veh RGS16 (11720943_a_at) / RFU RGS16 (11720944_at) / Fold change /veh RGS16 (11720944_at) / RFU, VPS4B / Fold change vs veh, VPS4B / RFU, CREB1 / Fold change vs veh, CREB1 / RFU, DNAJC13 / Fold change vs veh, DNAJC13 / RFU, GNAQ / Fold change vs veh, GNAQ / RFU, CDK5R1 / Fold change vs veh, CDK5R1 / RFU, ZRANB3 / Fold change vs veh, ZRANB3 / RFU, CUL4A / Fold change vs veh, CUL4A / RFU, CCNY / Fold change vs veh, CCNY / RFU, UFL1 / Fold change vs veh, UFL1 / RFU, COG3 / Fold change vs veh, COG3 / RFU, DIAPH2 / Fold change vs veh, DIAPH2 / RFU, SKA2 / Fold change vs veh, SKA2 / RFU, AFF3 / Fold change vs veh, AFF3 / RFU, LMF1 / Fold change vs veh, LMF1 / RFU, IPO11 / Fold change vs veh, IPO11 / RFU, DFFB / Fold change vs veh, DFFB / RFU, FOXP1 / Fold change vs veh, FOXP1 / RFU, CARD8 / Fold change vs veh, CARD8 / RFU, STRN3 / Fold change vs veh, STRN3 / RFU, ADK / Fold change vs veh, ADK / RFU, RASSF2 / Fold change vs veh, RASSF2 / RFU, WIPF1 / Fold change vs veh, WIPF1 / RFU, LARP1B / Fold change vs veh, LARP1B / RFU, RASA1 / Fold change vs veh, RASA1 / RFU, RB1 / Fold change vs veh, RB1 / RFU, PPFIA1 / Fold change vs veh, PPFIA1 / RFU, MAT2A / Fold change vs veh, MAT2A / RFU, CCT5 / Fold change vs veh, CCT5 / RFU, WDR92 / Fold change vs veh, WDR92 / RFU, CUX1 / Fold change vs veh, CUX1 / RFU, TTC7A / Fold change vs veh, TTC7A / RFU, TMEM135 / Fold change vs veh, TMEM135 / RFU, DEPTOR / Fold change vs veh, DEPTOR / RFU, CPM / Fold change vs veh, CPM / RFU, DNAJB6 / Fold change vs veh, DNAJB6 / RFU, CACNA2D3 / Fold change vs veh, CACNA2D3 / RFU, DTX4 / Fold change vs veh, DTX4 / RFU, TFCP2 / Fold change vs veh, TFCP2 / RFU, GMCL1 /// GMCL1P1 / Fold change vs veh, GMCL1 /// GMCL1P1 / RFU, AEBP2 / Fold change vs veh, AEBP2 / RFU, SNHG1 /// SNORD22 /// SNORD25 /// SNORD26 /// SNORD27 /// SNORD28 /// SNORD29 /// SNORD31 / Fold change vs veh, SNHG1 /// SNORD22 /// SNORD25 /// SNORD26 /// SNORD27 /// SNORD28 /// SNORD29 /// SNORD31 / Fold change (Aza/veh), C12orf56 (ProbeSet 11735607_a_at) / Fold change (ACY-1035/veh), C12orf56 (ProbeSet 11735607_a_at) / Fold change (Aza/veh), FGFR1OP (ProbeSet 11751329_s_at) / Fold change (ACY-1035/veh), FGFR1OP (ProbeSet 11751329_s_at) / Fold change (Aza/veh), VPS36 (ProbeSet 11739960_a_at) / Fold change (ACY-1035/veh), VPS36 (ProbeSet 11739960_a_at) / RFU SYPL1 (11715823_x_at) / Fold change /veh SYPL1 (11715823_x_at) / RFU IGFBP7 (11715501_s_at) / Fold change /veh IGFBP7 (11715501_s_at) / RFU REEP3 (11722064_at) / Fold change /veh REEP3 (11722064_at) / RFU IGLL1 (11728026_x_at) / Fold change /veh IGLL1 (11728026_x_at): dose or concentration left out as unconfirmed
Conditions: ProbeSet 11749781_s_at; LIST B

Nc1ccc(-c2cccs2)cc1NC(=O)c1ccc2c(c1)cc(C1CC1)n2CCN1CCOCC1 [ACY-1035]
RFU, BCAT1: 11.38 RFU
